Columns and labels:
Type in all cases: in vivo, rat
male Long-Evans rats [1] = test: Delayed spontaneous alternation in a 4-arm cross maze (30 second delay); details: i.p.
Method: For behavioral studies, male Long-Evans rats were purchased from Harlan (Indianapolis, Ind.) weighing between 325-375 g. Rats were individually housed in plastic cages (20.3 cm×20.3 cm×41.9 cm) in an environmentally controlled room (23° C., 30% humidity) on a 12 h:12 h light:dark cycle (lights on at 7:00 am). After at least four days to acclimate to the colony room, rats were handled for 10 minutes per day for four days to adjust to being handled during training and testing. At the same time rats began to be handled, rats were also food restricted to reduce their weight to 85-90% of their ad libitum weight. Rats had free access to water throughout the experiment. Animal care and use conformed to the guidelines of the National Institutes of Health Guide for the Care and Use of Laboratory Animals, and was approved by the Institutional Laboratory Animal Care and Use Committee at the University of Illinois at Chicago.
All behavioral testing occurred in a cross maze made of translucent black acrylic. Each arm measured 55 cm long, 10 cm wide, and 15 cm in height. A circular food well, with a diameter of 3.2 cm and a depth of 1.6 cm was placed 3 cm from the end of each arm. […]
In this test, rats were placed in the testing room 5 minutes prior to behavioral testing. […] The number and sequence of arm entries was recorded. An arm entry was recorded when all four paws entered an arm. […]

male Long-Evans rats [2] = test: Place discrimination acquisition and switch to visual cue discrimination (strategy switching); details: i.p.
Method: A different group of rats was used for the discrimination learning and strategy switching tests from that used in the delayed spontaneous alternation test. Prior to testing, rats were food-restricted to maintain their weight at 85% of their free-feed weight, handled and trained in the maze to obtain half piece of Froot Loops® cereal in the cross-maze.
Following training, each rat was tested across two consecutive days. In the first experiment each rat had to learn a place discrimination. Rats were started in a pseudorandom manner from one of two different arms such that any start arm was not used more than 3 consecutive trials. The two start arms (“east” and “west”) were always opposite each other. A black plastic block was placed in the entrance of the maze arm opposite to that of the start arm, giving the maze a T-shape. Thus, the same two choice arms were used no matter what start arm was used. A rat was started in the stem arm with only one of the two choice arms baited. In the acquisition phase, one choice arm or place was designated the reinforced arm which contained a ½ piece of cereal reinforcement on each trial. In this phase, a rat was required to enter the reinforced arm containing a ½ piece of cereal. […]
In the switch phase of each experiment, the errors committed were separated into different categories and analyzed. […]

male Long-Evans rats [3] = test: Visual cue discrimination acquisition and switch to place discrimination (strategy switching); details: 0.003 mg/kg i.p. before switch phase; vs controls
Method: In a separate experiment, the effect of CDD-0102A on initial learning of a visual cue strategy and switch to a place strategy was determined. All other aspects of the testing procedure were as described above. The treatment groups in this experiment were as follows: 1) saline—saline (n=8); 2) saline—CDD-0102A 0.003 mg/kg (n=7); 3) saline—CDD-0102A 0.03 mg/kg (n=7); 4) vehicle—CDD-0102A 0.1 mg/kg (n=8); 5) CDD-0102A 0.03 mg/kg-saline (n=7); or 6) CDD-0102A 0.01 mg/kg-saline (n=8).
These same types of errors were calculated in a similar manner for the experiment in which rats first learned a visual cue strategy and then switched to a place strategy.
In the spontaneous alternation task, a one-way analysis of variance was used to identify differences in percent alternation scores and number of arm entries across groups. Newman-Keuls post-hoc tests were used to compare treatment and control group measures. In the discrimination learning tests, one-way analyses of variance were used to identify differences in trials to criterion for acquisition and strategy switching. Separate analyses of variance were carried out to determine group differences in perseverative, regressive, and never-reinforced errors. Newman-Keuls post-hoc tests were used to compare differences between treatment groups.

male Long-Evans rats [4] = test: Salivation studies, salivary output over 60 minutes after i.p. administration
Method: For studies of salivation, male Long-Evans rats were purchased from Charles River Laboratories (Wilmington, Mass.) weighing between 250-425 g. Animals were kept in a vivarium on a 12-h light/dark cycle. Humidity was maintained at 30-70%, and temperature was maintained at 20-24° C. All procedures were approved by the Institutional Animal Care and Use Committee at Mithridion, Inc.
Salivation was quantified in rats following i.p. administration of CDD-0102A. Rats were first anesthetized with isoflurane, and then dosed with CDD-0102 by i.p. injection. Anesthesia was maintained by a nose cone that delivered 1.5-2.5% isoflurane in 500 ml/minute of oxygen. CDD-0102A was dissolved in phosphate-buffered saline and the injection volume was 2 ml/kg. The hind limbs of anesthetized animals were taped to the top of an incline (25° grade) so that the animal was oriented with its head near the bottom of the slope and its dorsal-surface oriented upward. Body temperature was monitored by a rectal thermometer, and maintained at 36-38° C. by a heating pad. The animal's nose was inserted into a nose cone for maintaining anesthesia while the entire mouth remained outside this nose cone. Pre-weighed filter paper (approximately 5×5 cm) was placed underneath the mouth to absorb the draining saliva. After 5 minutes, the saliva-wetted filter paper was weighed and replaced with fresh, pre-weighed filter paper. Total salivary output was calculated by subtracting the mass of the filter paper from the combined mass of paper plus saliva as collected over 60 minutes.

normal rats [5] = test: Example 2: attentional set-shifting model, place strategy shifted to visual cue strategy; details: injection before acquisition (FIG. 7A)
Text: The beneficial effects of CDD-0102A in the rat model of cognitive flexibility are among the strongest evidence providing the scientific rationale for CDD-0102A in the treatment of PSP. The inventors have developed several models of cognitive flexibility, including the model of attentional set shifting involving an extradimensional set shift described here. The model involves a place-visual cue task. Rats first learned to use a place strategy—always to enter the same arm to receive a food reward. Criterion was set at 10 consecutive correct trials. The following day, rats had to inhibit the place strategy and to learn a new visual cue strategy to receive the reward. Local visual cues in the maze arms included a black board in one arm and white board in the other arm. The cues were switched between the choice arms randomly across trials so the same cue was not always in the same location. The rat had to choose the arm that contained a particular color cue (e.g., black) in order to receive the reward. The criterion again was set at 10 consecutive correct trials.
Rats received either saline (N=3) or CDD-0102A at various doses 30 minutes prior to testing.

normal rats [6] = test: Example 2: attentional set-shifting model, visual cue strategy shifted to place strategy; details: injection before acquisition (FIG. 8A)
Text: The whole experiment was repeated with the rats learning first a visual cue strategy and then being switched to a place strategy.

CCc1noc(C2CN=CNC2)n1 (stereo not shown) [CDD-0102A, 5-(3-ethyl-1,2,4-oxadiazol-5-yl)-1,4,5,6-tetrahydropyrimidine]
dose at which significant improvement in memory function was observed (male Long-Evans rats [1]): ≥ 0.1 mg/kg
dose at which effect on strategy switching is maximal (male Long-Evans rats [2]): 0.03 mg/kg
trials to criterion, switch to place strategy (male Long-Evans rats [3]): no significant effect
salivary output over 60 minutes (male Long-Evans rats [4]; 0.1 mg/kg i.p.): no salivation
salivary output over 60 minutes (male Long-Evans rats [4]; 5 mg/kg i.p. (most salivation), mean ± SEM): 4,685±449 μl
salivary output over 60 minutes (male Long-Evans rats [4]; 10 mg/kg i.p., compared with 5 mg/kg dose, P>0.5): not significantly different
separation between dose enhancing place-visual cue task (0.03 mg/kg ip) and dose producing half-maximum salivation (male Long-Evans rats [4]; efficacious dose lower than dose producing half-maximum salivation): approximately 100 fold
lowest dose that produced salivation (male Long-Evans rats [4]; i.p.): 0.3 mg/kg
acquisition of the place-cue strategy (normal rats [5]): no effect
acquisition of the visual-cue strategy (normal rats [6]): no effect
